Patent US20220402948A1, “EGFR INHIBITOR, COMPOSITION AND PREPARATION METHOD THEREFOR” (BETTA PHARMACEUTICALS CO., LTD., priority 2019, published 2022)

Tests used:
[1] = molecular target: IGF1R (Homo sapiens, UniProt P08069); test: IGF1R kinase test (mobility variation analysis, Caliper EZ Reader); type: biochemical; conditions: kinase enzymatic activity, Table 1; read-out: EGFR IGF1R IC50
Description: (§1) Mobility variation analysis was performed to determine the affinity of the compound for EGFRΔ19del/T790M/C797S, EGFR WT and IGF1R. The enzymatic reaction scheme is as follows:
(§2) 1. Prepare 1*kinase buffer as follows.
2. Preparation of compound concentration gradient: The test compound was tested with an initial concentration of 3000 nM (300 nM for some triple mutations and 100 nM for others), diluted in a 384 source plate (96-well plate for comparative compound 1 and compounds 1-38) to a 100% DMSO solution with 100-fold final concentration, and the compound is 3-fold diluted with Precision to 10 concentrations. A dispenser Echo 550 was used to transfer 250 nL 100-fold final concentration of the compound to the target plate OptiPlate-384F.
3. Prepare 2.5-fold final concentration (5-fold for comparative compound 1 and compounds 1-38) of kinase solution with 1×Kinase buffer. Following steps should also be carried out for comparative compound 1 and compounds 1-38: Add each prepared intermediate dilution compounds to the compound wells of 384-well plate respectively, and test the repeated wells of each concentration; add 5% DMSO of 5 plates into the negative control well and the positive control well respectively. Prepare 2.5-fold final concentration of kinase solution with 1×Kinase buffer.
(§3) 4. Add 10 μL of 2.5-fold final concentration of kinase solution to the compound well and the positive control well; add 10 μL of 1×Kinase buffer to the negative control well.
(§4) 5. Centrifuge at 1000 rpm for 30 s, shake the reaction plate for well mixing, and then incubate at room temperature for 10 minutes.
(§5) 6. Prepare a mixture of ATP and Kinase substrate at 5/3-fold final concentration with 1×Kinase buffer.
7. Add 15 μL mixture of 5/3-fold (2.5-fold for comparative compound 1 and compounds 1-38) final concentration of ATP and substrate to start reaction.
(§6) 8. Centrifuge the 384-well plate at 1000 rpm for 30 s, shake it well and then incubate it at room temperature for corresponding time.
(§7) 9. Add 30 μL of stop detection solution to stop the kinase reaction, centrifuge at 1000 rpm for 30 s, and shake it well.
(§8) 10. Read conversion rate with Caliper EZ Reader.
(§9) % Inhibition=((Conversion%_max−Conversion%_sample)/(Conversion%_max−Conversion%_min))*100
(§10) Wherein: Conversion%_sample is the sample conversion rate reading; Conversion%_min: Mean value of negative control wells, representing the conversion rate reading of wells without enzymatic activity; Conversion%_max: Mean value of positive control wells, representing the conversion rate reading of wells without compound inhibition.
(§11) The dose-effect curve was fitted with concentration log value as X-axis and percentage inhibition rate as Y-axis. GraphPad Prism 5 analysis software was used for fitting Log (inhibitor) vs. response—Variable slope with the dose-effect curve to obtain IC50 value of enzymatic activity for each compound.
(§12) The calculation formula is as Y-Bottom+(Top-Bottom)/(1+10^((Log IC50−X)*HillSlope)).

[2] = molecular target: EGFRΔ19del/T790M/C797S (Homo sapiens, UniProt P00533, T790M/C797S, form not given); test: EGFR Δ19del/T790M/C797S kinase test (mobility variation analysis, Caliper EZ Reader); type: biochemical; conditions: kinase enzymatic activity, Table 1
Description: as §1, §2
(§13) 3. […] Prepare 2.5-fold final concentration of kinase solution with 1×Kinase buffer.
as §3, §4, §5, §6, §7, §8, §9, §10, §11, §12

[3] = molecular target: EGFR WT (Homo sapiens, UniProt P00533); test: EGFR WT kinase test (mobility variation analysis, Caliper EZ Reader); type: biochemical; conditions: kinase enzymatic activity, Table 1
Description: as §1, §2, §13, §3, §4, §5, §6, §7, §8, §9, §10, §11, §12

[4] = molecular target: Ba/F3 cells with EGFR Δ19del/T790M/C797S mutation gene stably overexpressed (Homo sapiens, UniProt P00533, T790M/C797S, cells depend on it, form not given); test: Ba/F3-Δ19del/T790M/C797S cell proliferation assay (CellTiter Glo, 72 hours); type: cell-based; conditions: Table 2, read-out: EGFR Δ19del/T790M/C797S IC50
Description: Cell line: Ba/F3 cells with EGFR Δ19del/T790M/C797S mutation gene stably overexpressed named Ba/F3-Δ119del/T90M/C797S, and A431 and Ba/F3-EGFR wild-type cell line.
a) Centrifuge the growth cells in logarithmic phase at 1000 rpm for 5 minutes, resuspend the cells in culture medium, and then count the cells;
b) Inoculate the cells into a 96-well cell culture plate with a density of 2000 cells/well;
b) Incubate cells in an incubator for another 72 hours.
a) Take out the 96-well cell culture plate and add 50 μl CTG reagent (CellTiter Glo kit, promega, Cat #G7573);
b) Shake the plate for 2 minutes and let cool at room temperature for 10 minutes;
c) Read luminous signal value with PerkinElmer reader,
Analysis of Experimental Data
The data were analyzed by GraphPad Prism 6.0 software to obtain the fitting curve of compound activity.
Y=Min+(Max−Min)/(1+10^((Log IC50−X)*slope));
X: Logarithm of compound concentration; Y: luminous signal.

Sequence of IGF1R (P08069 31-1367, species assumed): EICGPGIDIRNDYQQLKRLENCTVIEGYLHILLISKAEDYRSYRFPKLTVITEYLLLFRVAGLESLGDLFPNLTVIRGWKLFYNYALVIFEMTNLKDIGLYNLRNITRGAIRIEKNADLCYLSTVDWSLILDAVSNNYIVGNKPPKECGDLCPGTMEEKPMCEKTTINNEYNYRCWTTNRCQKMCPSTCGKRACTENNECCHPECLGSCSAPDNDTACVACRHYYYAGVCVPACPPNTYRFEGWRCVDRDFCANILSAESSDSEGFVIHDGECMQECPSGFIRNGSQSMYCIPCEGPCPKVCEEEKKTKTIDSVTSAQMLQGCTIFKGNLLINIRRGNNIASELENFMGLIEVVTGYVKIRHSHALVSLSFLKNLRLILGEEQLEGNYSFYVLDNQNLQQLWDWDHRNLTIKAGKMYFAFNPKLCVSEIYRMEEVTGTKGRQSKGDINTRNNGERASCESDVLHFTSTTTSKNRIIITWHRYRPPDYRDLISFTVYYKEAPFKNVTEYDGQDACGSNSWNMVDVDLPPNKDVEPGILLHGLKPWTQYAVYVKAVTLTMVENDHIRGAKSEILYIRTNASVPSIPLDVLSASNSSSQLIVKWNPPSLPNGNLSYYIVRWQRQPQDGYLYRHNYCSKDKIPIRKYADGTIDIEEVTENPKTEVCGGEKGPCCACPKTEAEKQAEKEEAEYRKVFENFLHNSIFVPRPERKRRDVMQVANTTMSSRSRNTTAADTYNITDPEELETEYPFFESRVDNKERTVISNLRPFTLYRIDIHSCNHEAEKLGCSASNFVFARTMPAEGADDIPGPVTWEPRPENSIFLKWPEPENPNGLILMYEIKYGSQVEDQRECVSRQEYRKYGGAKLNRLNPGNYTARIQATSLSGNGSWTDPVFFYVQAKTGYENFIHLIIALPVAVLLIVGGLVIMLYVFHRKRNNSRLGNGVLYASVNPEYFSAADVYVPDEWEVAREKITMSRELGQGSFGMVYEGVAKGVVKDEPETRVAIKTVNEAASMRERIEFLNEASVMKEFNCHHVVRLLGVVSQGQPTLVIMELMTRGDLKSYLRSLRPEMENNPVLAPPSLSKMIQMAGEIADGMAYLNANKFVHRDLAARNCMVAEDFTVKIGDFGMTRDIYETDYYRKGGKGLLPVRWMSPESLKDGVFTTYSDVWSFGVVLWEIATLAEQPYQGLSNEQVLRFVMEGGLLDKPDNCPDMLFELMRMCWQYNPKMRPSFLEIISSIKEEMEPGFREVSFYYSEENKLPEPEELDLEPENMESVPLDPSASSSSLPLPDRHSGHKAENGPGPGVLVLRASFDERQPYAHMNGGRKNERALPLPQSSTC

Molecule | IC50 [1] | IC50 [2] | IC50 [3] | GI50 [4]
CCc1cc(Nc2ncc(Br)c(Nc3ccc(-c4ncnn4C)cc3P(C)(C)=O)n2)c(OC)cc1N1CCC(N2CCN(C)CC2)CC1 [Compound 62, (2-((5-Bromo-2-((5-ethyl-2-methoxy-4-(4-(4-methylpiperazin-1-yl)piperidin-1-yl)phenyl)amino]pyrimidin-4-yl)amino)-5-(1-methyl-1H-1,2,4-triazol-5-yl)phenyl)dimethylphosphine oxide] | 992 nM | 0.8 nM | 216 nM | 
CCc1cc(Nc2ncc(Cl)c(Nc3ccc(-c4cnn5c4CC(C)(C)C5)cc3P(C)(C)=O)n2)c(OC)cc1N1CCC(N2CCN(C)CC2)CC1 [Compound 41, (2-((5-Chloro-2-((5-ethyl-2-methoxy-4-(4-(4-methylpiperazin-1-yl)piperidin-1-yl)phenyl)amino)pyrimidin-4-yl)amino)-5-(5,5-dimethyl-5,6-dihydro-tetrahydro-pyrrolo[1,2-b]pyrazol-3-)phenyl)dimethylphosphine oxide] | 748 nM | 1.5 nM | 58.9 nM | 
CCc1cc(Nc2ncc(Cl)c(Nc3ccc(-c4ccnc5c4ccn5C)cc3P(C)(C)=O)n2)c(OC)cc1N1CCC(N2CCN(C)CC2)CC1 [Compound 56, (2-((5-Chloro-2-((5-ethyl-2-methoxy-4-(4-(4-methylpiperazin-1-yl)piperidin-1-yl)phenyl)amino)pyrimidin-4-yl)amino)-5-(1-methyl-1H-pyrrolo[2,3-b]pyridin-4-yl)phenyl)dimethylphosphine oxide] | 886 nM | 2.4 nM | 72.5 nM | 
CCc1cc(Nc2ncc(Cl)c(Nc3ccc(-c4cnccc4OC)cc3P(C)(C)=O)n2)c(OC)cc1N1CCC(N2CCN(C)CC2)CC1 [Compound 53, (2-((5-Chloro-2-((5-ethyl-2-methoxy-4-(4-(4-methylpiperazin-1-yl)piperidin-1-yl)phenyl)amino)pyrimidin-4-yl)amino)-5-(4-methoxypyridin-3-yl)phenyl)dimethylphosphine oxide] | 1100 nM | 0.6 nM | 64 nM | 
CCc1cc(Nc2ncc(Cl)c(Nc3ccc(-c4nn(C)cc4C#N)cc3P(C)(C)=O)n2)c(OC)cc1N1CCC(N2CCN(C)CC2)CC1 [Compound 57] | 196 nM | 0.4 nM | 13.9 nM | 40.8 nM
CCc1cc(Nc2ncc(Cl)c(Nc3ccc(-c4cnn5c4OCCC5)cc3P(C)(C)=O)n2)c(OC)cc1N1CCC(N2CCN(C)CC2)CC1 [Compound 7, (2-((5-Chloro-2-((5-ethyl-2-methoxy-4-(4-(4-methylpiperazin-1-yl)piperidin-1-yl)phenyl)amino)pyrimidin-4-yl)amino)-5-(6,7-dihydro-5H-pyrazolo[5,1-b][1,3]nitrox-3-yl)phenyl)dimethylphosphine oxide] | 187 nM | 0.5 nM |  | 46.2 nM
CCc1cc(Nc2ncc(Cl)c(Nc3ccc(-c4cnn5cnccc45)cc3P(C)(C)=O)n2)c(OC)cc1N1CCC(N2CCN(C)CC2)CC1 [Compound 23, (2-((5-Chloro-2-((5-ethyl-2-methoxy-4-(4-(4-methylpiperazin-1-yl)piperidin-1-yl)phenyl)amino)pyrimidin-4-yl)amino)-5-(pyrazolo[1,5-c]pyrimidin-3-yl)phenyl)dimethylphosphine oxide] | 261 nM | 0.5 nM | 18.9 nM | 42.9 nM
CCc1cc(Nc2ncc(Cl)c(Nc3ccc(-c4cncs4)cc3P(C)(C)=O)n2)c(OC)cc1N1CCC(N2CCN(C)CC2)CC1 [Compound 15, (2-((5-Chloro-2-((5-ethyl-2-methoxy-4-(4-(4-methylpiperazin-1-yl)piperidin-1-yl)phenyl)amino)pyrimidin-4-yl)amino)-5-(thiazol-5-yl)phenyl)dimethylphosphine oxide] | 66.5 nM | 0.3 nM |  | 16.1 nM
CCc1cc(Nc2ncc(Br)c(Nc3ccc(-c4c(C)cnn4C)cc3P(C)(C)=O)n2)c(OC)cc1N1CCC(N2CCN(C)CC2)CC1 [Compound 54] | 624 nM | 0.6 nM | 42.2 nM | 
CCc1cc(Nc2ncc(Br)c(Nc3ccc(-c4cccc5cc[nH]c45)cc3P(C)(C)=O)n2)c(OC)cc1N1CCC(N2CCN(C)CC2)CC1 [Compound 52] | 1910 nM | 1.9 nM | 203 nM | 
CCc1cc(Nc2ncc(Cl)c(Nc3ccc(-c4cnc(C)nc4)cc3P(C)(C)=O)n2)c(OC)cc1N1CCC(N2CCN(C)CC2)CC1 [Compound 24, (2-((5-Chloro-2-((5-ethyl-2-methoxy-4-(4-(4-methylpiperazin-1-yl)piperidin-1-yl)phenyl)amino)pyrimidin-4-yl)amino)-5-(2-methylpyrimidin-5-yl)phenyl)dimethylphosphine oxide] | 264 nM | 0.7 nM | 66.9 nM | 44 nM
CCc1cc(Nc2ncc(Br)c(Nc3ccc(-c4cn(C)cn4)cc3P(C)(C)=O)n2)c(OC)cc1N1CCC(N2CCN(C)CC2)CC1 [Compound 68, (2-((5-Bromo-2-((5-ethyl-2-methoxy-4-(4-(4-methylpiperazin-1-yl)piperidin-1-yl)phenyl)amino)pyrimidin-4-yl)amino)-5-(1-methyl-1H-imidazol-4-yl)phenyl)dimethylphosphine oxide] | 663 nM | 0.9 nM | 84.7 nM | 

Continued, values first:

IC50 [1] | IC50 [2] | IC50 [3] | GI50 [4] | Molecule
886 nM | 1.6 nM | 44 nM |  | (2-((5-Chloro-2-((5-ethyl-2-methoxy-4-(4-(4-methylpiperazin-1-yl)piperidin-1-yl)phenyl)amino)pyrimidin-4-yl)amino)-5-(3-ethoxy-5-methylisoxazol-4-yl)phenyl)dimethylphosphine oxide [Compound K-061]
886 nM | 1.6 nM | 44 nM |  | CCc1cc(Nc2ncc(Cl)c(Nc3ccc(-c4cccc5ocnc45)cc3P(C)(C)=O)n2)c(OC)cc1N1CCC(N2CCN(C)CC2)CC1 [Compound K-052, (5-(Benzo[d]oxazol-4-yl)-2-((5-chloro-2-((5-ethyl-2-methoxy-4-(4-(4-methylpiperazin-1-yl)piperidin-1-yl)phenyl)amino)pyrimidin-4-yl)amino)phenyl)dimethylphosphine oxide]
56 nM | 0.5 nM | 17 nM |  | CCc1cc(Nc2ncc(Br)c(Nc3ccc(-c4cnn(C(F)F)n4)cc3P(C)(C)=O)n2)c(OC)cc1N1CCC(N2CCN(C)CC2)CC1 [Compound K-106, (2-((5-Bromo-2-((5-ethyl-2-methoxy-4-(4-(4-methylpiperazin-1-yl)piperidin-1-yl)phenyl)amino)pyrimidin-4-yl)amino)-5-(2-(difluoromethyl)-2H-1,2,3-triazol-4-yl)phenyl)dimethylphosphine oxide]
427 nM | 0.8 nM | 83.6 nM |  | CCc1cc(Nc2ncc(Cl)c(Nc3ccc(-c4ccc[nH]c4=O)cc3P(C)(C)=O)n2)c(OC)cc1N1CCC(N2CCN(C)CC2)CC1 [Compound K-092, 3-(4-((5-Chloro-2-((5-ethyl-2-methoxy-4-(4-(4-methylpiperazin-1-yl)piperidin-1-yl)phenyl)amino)pyrimidin-4-yl)amino)-3-(dimethylphosphoryl)phenyl)pyridin-2(1H)-one]
